From patent US8937077B2, “Bicyclic diamines as janus kinase inhibitors” (Merck Sharp & Dohme Corp., priority 2010, dated 2015)

Target: T1, Jak1 (Homo sapiens, UniProt P23458)
T1 construct: using a recombinant purified GST-tagged catalytic domain for each enzyme; GST; purchased Invitrogen M4290
Assay: Jak Biochemical HTRF Assay (Jak1)
Conditions: IC50 class, recombinant GST-tagged catalytic domain, read-out: Jak1 activity
Text: Compounds of formula I can be prepared according to the general procedures described in the Schemes and Examples herein, using appropriate materials. Representative compounds of the present invention are exemplified herein below. The compounds exemplified are not, however, to be construed as limiting the scope of the invention in any manner. The examples further illustrate details for the preparation of the compounds of the present invention. Those skilled in the art will readily understand that known variations of protecting groups, of reagents, as well as of the conditions and processes of the following preparative procedures, can be used to prepare these compounds. It is also understood that whenever a chemical reagent is not commercially available, such a chemical reagent can be readily prepared by those skilled in the art by either following or adapting known methods described in the literature or described herein. Chiral analogs were prepared via incorporation of chiral reagents or obtained after chiral chromatography separation of a racemically generated analog. All temperatures are degrees Celsius unless otherwise noted. Mass spectra (MS) were measured either by electrospray ion-mass spectroscopy (ESMS) or by atmospheric pressure chemical ionization mass spectroscopy (APCI). Jak1 data were obtained using the in vitro assay described below.
Jak Biochemical HTRF Assay Protocol
The ability of compounds to inhibit the activity of Jak1, Jak2, Jak3, and Tyk2 was measured using a recombinant purified GST-tagged catalytic domain for each enzyme (Invitrogen Jak1 #M4290, […]) in an HTRF format biochemical assay. The reactions employed a common peptide substrate, LCB-EQEDEPEGDYFEWLW-NH2 (in-house). The basic assay protocol is as follows: First, […] of diluted compounds in DMSO were dispensed into the wells of a dry 384-well Black plate (Greiner #781076) using a Labcyte Echo 555 acoustic dispenser. Subsequent reagent additions employed an Agilent Bravo. Next, 18 μL, of 1.11X enzyme and 1.11X substrate in 1X assay buffer (Invitrogen kinase buffer #PV3189, 2 mM DTT, 0.05% BSA) were added to the wells and shaken and then preincubated for 30 minutes at room temperature to allow compound binding to equilibrate. After equilibration, 2 μL of 10X ATP in 1X assay buffer was added to initiate the kinase reaction and the plates were shaken and then incubated at room temperature for 120 minutes. At the end of the incubation, 20 μL of 2X stop buffer (streptavidin-Dylight (Thermo #21845), Eu-tagged pY20 antibody (Perkin Elmer #AD0067), EDTA, HEPES, and Triton) was added to quench the reaction. Plates were shaken and centrifuged and then incubated 60 minutes at room temperature and then read on a Perkin Elmer Envision (λex=337 nm, λem=665 and 615 nm, TRF delay time=20 μs). HTRF signal=10,000*665 nm reading/615 nm reading. After normalization to untreated controls, the percent inhibition of the HTRF signal at each compound concentration was calculated. The plot of percent inhibition versus the log of compound concentration was fit with a 4-parameter dose response equation to calculate IC50 values.

T1 sequence (P23458 875-1153 limits assumed): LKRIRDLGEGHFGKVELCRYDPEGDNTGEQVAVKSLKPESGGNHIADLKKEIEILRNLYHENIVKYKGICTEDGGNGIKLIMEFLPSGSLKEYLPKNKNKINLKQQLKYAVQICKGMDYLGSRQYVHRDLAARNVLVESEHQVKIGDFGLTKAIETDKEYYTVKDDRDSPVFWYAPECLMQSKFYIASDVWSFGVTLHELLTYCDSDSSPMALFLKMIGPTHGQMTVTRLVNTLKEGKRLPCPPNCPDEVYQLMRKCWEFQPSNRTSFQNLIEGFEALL

| Structure (SMILES) | IC50 [nM] |
| --- | --- |
| O=C(OCCCc1ccccc1)N1CCC[C@@H]2[C@H]1CCN2c1ncnc2[nH]ccc12 [Example 3-47, 3-phenylpropyl (3aR,7aR)-1-(7H-pyrrolo[2,3-d]pyrimidin-4-yl)octahydro-4H-pyrrolo[3,2-b]pyridine-4-carboxylate] | 1 to 10 |
| O=C(OCCCc1cccnc1)N1CCC[C@@H]2[C@H]1CCN2c1ncnc2[nH]ccc12 [Example 3-48, 3-pyridin-3-ylpropyl (3 aR,7 aR)-1-(7H-pyrrolo[2,3-d]pyrimidin-4-yl)octahydro-4H-pyrrolo[3,2-b]pyridine-4-carboxylate] | 10 to 100 |
| COC(=O)c1ccc(COC(=O)N2CCC[C@@H]3[C@H]2CCN3c2ncnc3[nH]ccc23)cc1 [Example 4, 4-(methoxycarbonyl)benzyl (3aR,7aR)-1-(7H-pyrrolo[2,3-d]pyrimidin-4-yl)octahydro-4H-pyrrolo[3,2-b]pyridine-4-carboxylate] | 1 to 10 |
| COC(=O)c1ccc(COC(=O)N2CCC[C@H]3[C@@H]2CCN3c2ncnc3[nH]ccc23)cc1 [Example 5, 4-(methoxycarbonyl)benzyl (3aS,7aS)-1-(7H-pyrrolo[2,3-d]pyrimidin-4-yl)octahydro-4H pyrrolo[3,2-b]pyridine-4-carboxylate] | 100 to 1000 |
| O=C(O)c1ccc(COC(=O)N2CCC[C@@H]3[C@H]2CCN3c2ncnc3[nH]ccc23)cc1 [Example 6, 4-[({[(3aR,7aR)-1-(7H-pyrrolo[2,3-d]pyrimidin-4-yl)octahydro-4H-pyrrolo[3,2-b]pyridine-4-yl]carbonyl}oxy)methyl]benzoic acid] | 100 to 1000 |
| CC(C)(C)OC(=O)NCc1ccc(COC(=O)N2CCC[C@@H]3[C@H]2CCN3c2ncnc3[nH]ccc23)cc1 [Example 8-1, 4-{[(tert-butoxycarbonyl)amino]methyl}benzyl(3aR,7aR)-1-(7H-pyrrolo[2,3-d]pyrimidin-4-yl)octahydro-4-pyrrolo[3,2-b]pyridine-4-carboxylate] | 100 to 1000 |
| NCc1ccc(COC(=O)N2CCC[C@@H]3[C@H]2CCN3c2ncnc3[nH]ccc23)cc1 [Example 9, 4-(aminomethyl)benzyl (3aR,7aR)-1-(7H-pyrrolo[2,3-d]pyrimidin-4-yl)octahydro-4H-pyrrolo[3,2-b]pyridine-4-carboxylate] | 100 to 1000 |
| O=C(OCc1ccc(CO)cc1)N1CCC[C@@H]2[C@H]1CCN2c1ncnc2[nH]ccc12 [Example 10, 4-(hydroxymethyl)benzyl (3aR,7aR)-1-(7H-pyrrolo[2,3-d]pyrimidin-4-yl)octahydro-4H-pyrrolo[3,2-b]pyridine-4-carboxylate] | 100 to 1000 |
| CC(C)(C)OC(=O)N1CCC[C@@H]2[C@H]1CCN2c1ncnc2[nH]ccc12 [Example 11, tert-butyl (3aR,7aR)-1-(7H-pyrrolo[2,3-d]pyrimidin-4-yl)octahydro-4H-pyrrolo[3,2-b]pyridin-4-carboxylate] | 100 to 1000 |
| N#CCC(=O)N1CCCC2C1CCN2c1ncnc2[nH]ccc12 [Example 12, (3aS,7aS and 3aR,7aR) 3-oxo-3-[1-(7H-pyrrolo[2,3-d]pyrimidin-4-yl)octahydro-4H-pyrrolo[3,2-b]pyridin-4-yl]propanenitrile] | 10 to 100 |
| COC(=O)c1ccc(CCCN2CCC[C@@H]3[C@H]2CCN3c2ncnc3[nH]ccc23)cc1 [Example 13, methyl 4-{3-[(3aR,7aR)-1-(7H-pyrrolo[2,3-d]pyrimidin-4-yl)octahydro-4H-pyrrolo[3,2-b]pyridin-4-yl]propyl}benzoate] | 100 to 1000 |
| O=C(O)c1ccc(CCCN2CCC[C@@H]3[C@H]2CCN3c2ncnc3[nH]ccc23)cc1 [Example 14, 4-{3-[(3aR,7aR)-1-(7H-pyrrolo[2,3-d]pyrimidin-4-yl)octahydro-4H-pyrrolo[3,2-b]pyridin-4-yl]propyl}benzoic acid] | 100 to 1000 |
| Cc1cc2c(N3CCC4C3CCCN4C(=O)OCc3ccccc3)ncnc2[nH]1 [Example 15, (3aS,7aS and 3aR,7aR) benzyl 1-(6-methyl-7H-pyrrolo[2,3-d]pyrimidin-4-yl)octahydro-4H-pyrrolo[3,2-b]pyridine-4-carboxylate] | 10 to 100 |
| O=C(OCc1ccccc1)N1CCC2C1CCCN2c1ncnc2[nH]ccc12 [Example 16, (3aS,7aS and 3aR,7aR) benzyl 4-(7H-pyrrolo[2,3-d]pyrimidin-4-yl)octahydro-1H-pyrrolo[3,2-b]pyridine-1-carboxylate] | 10 to 100 |
| O=C(CO)N1CCCC2C1CCN2c1ncnc2[nH]ccc12 [Example 17, (3aS,7aS and 3aR,7aR) 2-hydroxy-1-[1-(7H-pyrrolo[2,3-d]pyrimidin-4-yl)octahydro-4H-pyrrolo[3,2-b]pyridine-4-yl]ethanone] | 100 to 1000 |
| CO[C@](C(=O)N1CCC[C@@H]2[C@H]1CCN2c1ncnc2[nH]ccc12)(c1ccccc1)C(F)(F)F [Example 18, (2S)-3,3,3-trifluoro-2-methoxy-2-phenyl-1-[(3aR,7aR)-1-(7H-pyrrolo[2,3-d]pyrimidin-4-yl)octahydro-4H-pyrrolo[3,2-b]pyridine-4-yl]propan-1 one] | 100 to 1000 |
| CO[C@@](C(=O)N1CCC[C@@H]2[C@H]1CCN2c1ncnc2[nH]ccc12)(c1ccccc1)C(F)(F)F [Example 19, (2R)-3,3,3-trifluoro-2-methoxy-2-phenyl-1-[(3aR,7aR)-1-(7H-pyrrolo[2,3-d]pyrimidin-4-yl)octahydro-4H-pyrrolo[3,2-b]pyridine-4-yl]propan-1-one] | 10 to 100 |

Now from value to molecule:

| IC50 [nM] | Structure (SMILES) |
| --- | --- |
| 100 to 1000 | CN(C)C(=O)c1ccc(COC(=O)N2CCC[C@@H]3[C@H]2CCN3c2ncnc3[nH]ccc23)cc1 [Example 7-1, 4-(dimethylcarbamoyl)benzyl (3aR,7aR)-1-(7H-pyrrolo[2,3-d]pyrimidin-4-yl)octahydro-4H-pyrrolo[3,2-b]pyrindine-4-carboxylate] |
| 10 to 100 | NC(=O)c1ccc(COC(=O)N2CCC[C@@H]3[C@H]2CCN3c2ncnc3[nH]ccc23)cc1 [Example 7-2, 4-carbamoylbenzyl (3aR,7aR)-1-(7H-pyrrolo[2,3-d]pyrimidin-4-yl)octahydro-4H-pyrrolo[3,2-b]pyridine-4-carboxylate] |
| 100 to 1000 | CNC(=O)c1ccc(COC(=O)N2CCC[C@@H]3[C@H]2CCN3c2ncnc3[nH]ccc23)cc1 [Example 7-3, 4-(methylcarbamoyl)benzyl (3aR,7aR)-1-(7H-pyrrolo[2,3-d]pyrimidin-4-yl)octahydro-4H-pyrrolo[3,2-b]pyridine-4-carboxylate] |
| 100 to 1000 | CN(C)CCNC(=O)c1ccc(COC(=O)N2CCC[C@@H]3[C@H]2CCN3c2ncnc3[nH]ccc23)cc1 [Example 7-4, 4-{[2-(dimethylamino)ethyl]carbamoyl}benzyl (3aR,7aR)-1-(7H-pyrrolo[2,3-d]pyrimidin-4-yl)octahydro-4H-pyrrolo[3,2-b]pyridine-4-carboxylate] |
| 100 to 1000 | CN(C)CCN(C)C(=O)c1ccc(COC(=O)N2CCC[C@@H]3[C@H]2CCN3c2ncnc3[nH]ccc23)cc1 [Example 7-5, 4-{[2-(dimethylamino)ethyl](methyl)carbamoyl}benzyl (3aR,7aR)-1-(7H-pyrrolo[2,3-d]pyrimidin-4-yl)octahydro-4H-pyrrolo[3,2-b]pyridine-4-carboxylate] |
| 10 to 100 | C[C@H](OC(=O)N1CCC[C@@H]2C1CCN2c1ncnc2[nH]ccc12)c1ccccc1 (stereo partly drawn) [Example 8-2, (1S)-1-phenylethyl (3aR,7 aR)-1-(7H-pyrrolo[2,3-d]pyrimidin-4-yl)octahydro-4-pyrrolo[3,2-b]pyridine-4-carboxylate] |

Same assay, conditions: recombinant GST-tagged catalytic domain, 31.8 μM ATP, read-out: Representative IC50 values

| IC50 [nM] | Structure (SMILES) |
| --- | --- |
| 2 | COC(=O)c1ccc(COC(=O)N2CCC[C@@H]3[C@H]2CCN3c2ncnc3[nH]ccc23)cc1 [Example 4, 4-(methoxycarbonyl)benzyl (3aR,7aR)-1-(7H-pyrrolo[2,3-d]pyrimidin-4-yl)octahydro-4H-pyrrolo[3,2-b]pyridine-4-carboxylate] |
| 26 | N#CCC(=O)N1CCCC2C1CCN2c1ncnc2[nH]ccc12 [Example 12, (3aS,7aS and 3aR,7aR) 3-oxo-3-[1-(7H-pyrrolo[2,3-d]pyrimidin-4-yl)octahydro-4H-pyrrolo[3,2-b]pyridin-4-yl]propanenitrile] |
| 169 | COC(=O)c1ccc(CCCN2CCC[C@@H]3[C@H]2CCN3c2ncnc3[nH]ccc23)cc1 [Example 13, methyl 4-{3-[(3aR,7aR)-1-(7H-pyrrolo[2,3-d]pyrimidin-4-yl)octahydro-4H-pyrrolo[3,2-b]pyridin-4-yl]propyl}benzoate] |
| 31 | O=C(OCc1ccccc1)N1CCC2C1CCCN2c1ncnc2[nH]ccc12 [Example 16, (3aS,7aS and 3aR,7aR) benzyl 4-(7H-pyrrolo[2,3-d]pyrimidin-4-yl)octahydro-1H-pyrrolo[3,2-b]pyridine-1-carboxylate] |
